Laboratory results taken from patent publication US11001591B2, “TRAF 6 inhibitors” (HELMHOLTZ ZENTRUM MUENCHEN—DEUTSCHES FORSCHUNGSZENTRUM FÜR …, priority 2016, dated 2021).
pIC50: −log10 of the molar value. Entries after “also recorded” stand apart in the source; their conditions may differ.

biological target: T1, TRAF6-UBC13 interaction (Homo sapiens, UniProt Q9Y4K3); experiment: ALPHAScreen TRAF6WTStrepII-Ubc13FH interaction assay; assay type: binding; settings: inhibition of TRAF6-UBC13 interaction
T1 construct: RING-Zincfinger1 (RZ1) domain (residues 50-159) of TRAF6 wildtype; made in house; host or cells: E. coli BL21 codon plus RIPL
T1 sequence (Q9Y4K3 50-159): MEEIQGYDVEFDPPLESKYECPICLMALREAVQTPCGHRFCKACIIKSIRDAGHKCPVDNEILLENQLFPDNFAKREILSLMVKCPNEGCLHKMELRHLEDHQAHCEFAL
Description: In order to identify small molecules that specifically target the RZ1 domain of TRAF6 and thereby prevent its binding to Ubc13, the ALPHAScreen technology (PerkinElmer) was chosen to detect TRAF6WTStrepII-Ubc13FH interaction in High-Throughput-Screenings as well as Structure Activity Relationship (SAR) analysis.
For performance of an automated ALPHAScreen assay, all following components were pre-diluted in ALPHAScreen buffer (1×PBS, 0.5% BSA, 0.01% Tween-20). First, the TRAF6 protein (end concentration 100 nM, 30 μL volume) was added to 384-well-opti-plates involving the MultiFlo dispensing system (BioTek) followed by transfer of the compounds via the Sciclone G3 transfer station (PerkinElmer). After addition of Ubc13FH (end concentration 75 nM, 10 μL volume) with the MultiFlo system and incubation for one hour at room temperature, both beads (Strep-Tactin Alpha Donor beads and Nickel-Chelate acceptor beads; end concentrations 4 μg each, 10 μL volume each) were mixed and added using the MultiFlo system in subdued light. Read-out of the plates occurred after another hour of incubation at room temperature. Statistical parameters including the coefficient of variation, Z′ factor and signal window were calculated to determine the quality of the HTS campaign. To evaluate the efficacy of the compounds, ALPHAScreen units of compound-treated samples were referred to DMSO control treated samples. Thereby, the TRAF6D57K mutant served as the control for minimum signal and was included on every plate of the screening. Compounds that inhibited TRAF6WTStrepII-Ubc13FH by more than 25% were considered as actives. After elimination of ALPHAScreen frequent hitter compounds and His-tag frequent hitters (Schorpp, K., I. Rothenaigner, E. Salmina, et al., Identification of Small-Molecule Frequent Hitters from AlphaScreen High-Throughput Screens. J Biomol Screen, 2014. 19(5): p. 715-26), 178 compounds were defined as primary hits and were subsequently tested in five-point serial dilution assays (2.5-40 μM) in TRAF6WTStrepII-Ubc13FH ALPHAScreen experiments. Only compounds with dose-dependent effects on TRAF6WTStrepII-Ubc13FH (n=27) were taken for further research. For analog testing, all compounds were analyzed in ten-point titration (0.2-100 μM) in TRAF6WTStrepII-Ubc13FH ALPHAScreen experiments. In parallel, the compounds were tested in the ALPHAScreen TruHits Kit (PerkinElmer) to rule out unspecific interference with the ALPHAScreen technology.

| pIC50 | Compound |
| --- | --- |
| ≥ 4.52 | Cc1nn(-c2ccc3nnc(C)n3n2)c(C)c1CCC(=O)NCCCc1ccccc1 [Compound 15, 3-(3,5-dimethyl-1-(3-methyl-[1,2,4]triazolo[4,3-b]pyridazin-6-yl)-1H-pyrazol-4-yl)-N-(3-phenylpropyl)propanamide] |
| ≥ 4.52 | Cc1nn(-c2ccc3nncn3n2)c(C)c1CCC(=O)N1CCC(Cc2ccccc2)CC1 [Compound 16, 3-(1-([1,2,4]triazolo[4,3-b]pyridazin-6-yl)-3,5-dimethyl-1H-pyrazol-4-yl)-1-(4-benzylpiperidin-1-yl)propan-1-one] |
| ≥ 4.52 | Cc1ccc(C)c(N2CCN(C(=O)CCc3c(C)nn(-c4ccc5nnc(C)n5n4)c3C)CC2)c1 [Compound 17, 3-(3,5-dimethyl-1-(3-methyl-[1,2,4]triazolo[4,3-b]pyridazin-6-yl)-1H-pyrazol-4-yl)-1-(4-(2,5-dimethylphenyl)piperazin-1-yl)propan-1-one] |
| ≥ 4.52 | Cc1nn(-c2ccc3nnc(C)n3n2)c(C)c1CCC(=O)NCc1ccc(Cl)cc1 [Compound 18, N-(4-chlorobenzyl)-3-(3,5-dimethyl-1-(3-methyl-[1,2,4]triazolo[4,3-b]pyridazin-6-yl)-1H-pyrazol-4-yl)propanamide] |
| ≥ 4.52 | Cc1nn(-c2ccc3nnc(C)n3n2)c(C)c1CCC(=O)NCc1cccs1 [Compound 19, 3-(3,5-dimethyl-1-(3-methyl-[1,2,4]triazolo[4,3-b]pyridazin-6-yl)-1H-pyrazol-4-yl)-N-(thiophen-2-ylmethyl)propanamide] |
| ≥ 4.52 | Cc1nn(-c2ccc3nnc(C)n3n2)c(C)c1CCC(=O)NCCc1c[nH]c2ccccc12 [Compound 20, N-(2-(1H-indol-3-yl)ethyl)-3-(3,5-dimethyl-1-(3-methyl-[1,2,4]triazolo[4,3-b]pyridazin-6-yl)-1H-pyrazol-4-yl)propanamide] |
| ≥ 4.52 | Cc1nn(-c2ccc3nnc(C)n3n2)c(C)c1CCC(=O)NCc1ccccc1 [Compound 21, N-benzyl-3-(3,5-dimethyl-1-(3-methyl-[1,2,4]triazolo[4,3-b]pyridazin-6-yl)-1H-pyrazol-4-yl)propanamide] |
| ≥ 5.52 | COc1cccc(N2CCN(C(=O)CCc3c(C)nn(-c4ccc5nnc(C)n5n4)c3C)CC2)c1 [Compound 61, 3-(3,5-dimethyl-1-(3-methyl-[1,2,4]triazolo[4,3-b]pyridazin-6-yl)-1H-pyrazol-4-yl)-1-(4-(3-methoxyphenyl)piperazin-1-yl)propan-1-one] |

same assay, conditions: inhibition of TRAF6-UBC13 interaction; read-out: IC50 Alphascreen

| inhibition at 100 µM [%] | Compound |
| --- | --- |
| ≥ 30 | Cc1nn(-c2ccc3nncn3n2)c(C)c1CCC(=O)NCCCc1ccccc1 [Compound 22, 3-(1-([1,2,4]triazolo[4,3-b]pyridazin-6-yl)-3,5-dimethyl-1H-pyrazol-4-yl)-N-(3-phenylpropyl)propanamide] |
| ≥ 30 | CCN1CCN(C(=O)CCc2c(C)nn(-c3ccc4nnc(C)n4n3)c2C)CC1 [Compound 23, 3-(3,5-dimethyl-1-(3-methyl-[1,2,4]triazolo[4,3-b]pyridazin-6-yl)-1H-pyrazol-4-yl)-1-(4-ethylpiperazin-1-yl)propan-1-one] |
| ≥ 30 | Cc1nn(-c2ccc3nncn3n2)c(C)c1CCC(=O)N1CCC(C)CC1 [Compound 24, 3-(1-([1,2,4]triazolo[4,3-b]pyridazin-6-yl)-3,5-dimethyl-1H-pyrazol-4-yl)-1-(4-methylpiperidin-1-yl)propan-1-one] |
| ≥ 30 | Cc1nn(-c2ccc3nncn3n2)c(C)c1CCC(=O)N1CCCC1 [Compound 25, 3-(1-([1,2,4]triazolo[4,3-b]pyridazin-6-yl)-3,5-dimethyl-1H-pyrazol-4-yl)-1-(pyrrolidin-1-yl)propan-1-one] |
| ≥ 30 | Cc1nn(-c2ccc3nnc(C)n3n2)c(C)c1CCC(=O)NCc1ccccc1F [Compound 26, 3-(3,5-dimethyl-1-(3-methyl-[1,2,4]triazolo[4,3-b]pyridazin-6-yl)-1H-pyrazol-4-yl)-N-(2-fluorobenzyl)propanamide] |
| ≥ 30 | Cc1nn(-c2ccc3nnc(C)n3n2)c(C)c1CCC(=O)NCCSCc1ccco1 [Compound 27, 3-(3,5-dimethyl-1-(3-methyl-[1,2,4]triazolo[4,3-b]pyridazin-6-yl)-1H-pyrazol-4-yl)-N-(2-((furan-2-ylmethyl)thio)ethyl)propanamide] |

biological target: T2, TRAF6-Ubc13 binding (Homo sapiens, UniProt Q9Y4K3); experiment: Co-immunoprecipitation of HA-TRAF6 and endogenous Ubc13 in HEK 293T cells; assay type: cell-based; settings: not given
T2 construct: RING-Zincfinger1 (RZ1) domain (residues 50-159) of TRAF6 wildtype; expressed in transfected cells; host or cells: HEK 293T
T2 sequence (Q9Y4K3 50-159): T1 sequence (Q9Y4K3 50-159)
Description: To study the interaction of TRAF6 and Ubc13 in cells, 1×10^6 293T cells were seeded and after 18 hours cells were transfected with lpg pEF-HA empty or pEF-HA-TRAF6 RZ1 plasmid using the X-tremeGENE HP DNA transfection reagent (Roche). 6 hours upon transfection, cells were treated with compound or DMSO. After 42 hours further incubation, cells were harvested in Co-IP lysis buffer and HA-TRAF6 was immunoprecipitated with anti-HA affinity matrix (Roche). Binding of Ubc13 to TRAF6 was examined in Western Blot analysis.

| Compound | interaction of endogenous Ubc13 with ectopically expressed HA-TRAF6 |
| --- | --- |
| Cc1nn(-c2ccc3nnc(C)n3n2)c(C)c1CCC(=O)N1CCN(Cc2ccccc2)CC1 [Compound 28, 1-(4-benzylpiperazin-1-yl)-3-(3,5-dimethyl-1-(3-methyl-[1,2,4]triazolo[4,3-b]pyridazin-6-yl)-1H-pyrazol-4-yl)propan-1-one] | active in cells |
| COc1cccc(CN2CCN(C(=O)CCc3c(C)nn(-c4ccc5nnc(C)n5n4)c3C)CC2)c1 [Compound 29, 3-(3,5-dimethyl-1-(3-methyl-[1,2,4]triazolo[4,3-b]pyridazin-6-yl)-1H-pyrazol-4-yl)-1-(4-(3-methoxybenzyl)piperazin-1-yl)propan-1-one] | active in cells |
| Cc1nn(-c2ccc3nnc(C)n3n2)c(C)c1CCC(=O)N1CCN(Cc2ccc(F)cc2)CC1 [Compound 30, 3-(3,5-dimethyl-1-(3-methyl-[1,2,4]triazolo[4,3-b]pyridazin-6-yl)-1H-pyrazol-4-yl)-1-(4-(4-fluorobenzyl)piperazin-1-yl)propan-1-one] | active in cells |
| Cc1nn(-c2ccc3nnc(C)n3n2)c(C)c1CCC(=O)N1CCC(c2ccccc2)CC1 [Compound 32, 3-(3,5-dimethyl-1-(3-methyl-[1,2,4]triazolo[4,3-b]pyridazin-6-yl)-1H-pyrazol-4-yl)-1-(4-phenylpiperidin-1-yl)propan-1-one] | active in cells |
| Cc1nn(-c2ccc3nnc(C)n3n2)c(C)c1CCC(=O)N1CCC(Cc2ccccn2)CC1 [Compound 36, 3-(3,5-dimethyl-1-(3-methyl-[1,2,4]triazolo[4,3-b]pyridazin-6-yl)-1H-pyrazol-4-yl)-1-(4-(pyridin-2-ylmethyl)piperidin-1-yl)propan-1-one] | active in cells |

same assay, conditions: listed as HZM06-7

| Compound | interaction of endogenous Ubc13 with ectopically expressed HA-TRAF6 |
| --- | --- |
| Cc1nn(-c2ccc3nnc(C)n3n2)c(C)c1CCC(=O)N1CCC(c2ccccn2)CC1 [Compound 33, 3-(3,5-dimethyl-1-(3-methyl-[1,2,4]triazolo[4,3-b]pyridazin-6-yl)-1H-pyrazol-4-yl)-1-(4-(pyridin-2-yl)piperidin-1-yl)propan-1-one] | active in cells; also recorded: most active analogs |

same assay, conditions: listed as HZM06-8

| Compound | interaction of endogenous Ubc13 with ectopically expressed HA-TRAF6 |
| --- | --- |
| COc1cccc(CC2CCN(C(=O)CCc3c(C)nn(-c4ccc5nnc(C)n5n4)c3C)CC2)c1 [Compound 34, 3-(3,5-dimethyl-1-(3-methyl-[1,2,4]triazolo[4,3-b]pyridazin-6-yl)-1H-pyrazol-4-yl)-1-(4-(3-methoxybenzyl)piperidin-1-yl)propan-1-one] | active in cells; also recorded: most active analogs |

same assay, conditions: listed as HZM06-9

| Compound | interaction of endogenous Ubc13 with ectopically expressed HA-TRAF6 |
| --- | --- |
| Cc1nn(-c2ccc3nnc(C)n3n2)c(C)c1CCC(=O)N1CCC(Cc2ccc(F)cc2)CC1 [Compound 35, 3-(3,5-dimethyl-1-(3-methyl-[1,2,4]triazolo[4,3-b]pyridazin-6-yl)-1H-pyrazol-4-yl)-1-(4-(4-fluorobenzyl)piperidin-1-yl)propan-1-one] | active in cells; also recorded: most active analogs |
